Results published in patent publication US20240158370A1, “CK1 alpha AND DUAL CK1 alpha / GSPT1 DEGRADING COMPOUNDS” (Innovo Therapeutics, Inc., priority 2022, published 2024).

Columns and labels:
GSPT1 = GSPT1 (Homo sapiens, UniProt P15170+Q96SW2); assay: HiBiT degradation assay, GSPT1, Procedure A; format: cell-based; parameters: HiBit-GSPT1 KI HEK293(LgBit) Cells; host or cells: HEK293(LgBit) knock-in cells
How it was run: (§1)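 DC50 and Ymin (% remaining) were derived by four-parameter fitting of luminescence data. The data come from a six-hour, 37° C compound exposure of cells in DMEM/10% FBS over a ten-point range, 10 μM to 0.005 μM, followed by Nano-Glo HiBiT lytic detection.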

CK1α = biological target: T1, CK1α (Homo sapiens, UniProt P48729+Q96SW2); assay: HiBiT degradation assay, CK1α, Procedure A; format: cell-based
T1 construct: CSNK1A1-HiBit KI HEK293(LgBit) Cells; host or cells: HEK293(LgBit) knock-in cells
How it was run: as §1

Sequence of GSPT1 (P15170 whole entry): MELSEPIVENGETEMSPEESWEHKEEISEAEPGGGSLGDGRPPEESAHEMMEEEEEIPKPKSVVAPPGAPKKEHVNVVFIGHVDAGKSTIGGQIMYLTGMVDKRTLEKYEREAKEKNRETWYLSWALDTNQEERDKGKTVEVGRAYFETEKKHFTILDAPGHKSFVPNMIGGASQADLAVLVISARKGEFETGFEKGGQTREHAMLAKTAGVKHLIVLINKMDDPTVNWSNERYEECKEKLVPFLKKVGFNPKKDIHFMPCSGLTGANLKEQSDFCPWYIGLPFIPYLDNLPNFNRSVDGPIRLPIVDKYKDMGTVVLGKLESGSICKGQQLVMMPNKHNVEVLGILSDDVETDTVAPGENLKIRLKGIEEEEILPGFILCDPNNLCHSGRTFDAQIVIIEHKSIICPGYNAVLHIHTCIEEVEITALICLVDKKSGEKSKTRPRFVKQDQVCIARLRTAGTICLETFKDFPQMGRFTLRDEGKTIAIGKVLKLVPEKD
Sequence of GSPT1 (Q96SW2 whole entry): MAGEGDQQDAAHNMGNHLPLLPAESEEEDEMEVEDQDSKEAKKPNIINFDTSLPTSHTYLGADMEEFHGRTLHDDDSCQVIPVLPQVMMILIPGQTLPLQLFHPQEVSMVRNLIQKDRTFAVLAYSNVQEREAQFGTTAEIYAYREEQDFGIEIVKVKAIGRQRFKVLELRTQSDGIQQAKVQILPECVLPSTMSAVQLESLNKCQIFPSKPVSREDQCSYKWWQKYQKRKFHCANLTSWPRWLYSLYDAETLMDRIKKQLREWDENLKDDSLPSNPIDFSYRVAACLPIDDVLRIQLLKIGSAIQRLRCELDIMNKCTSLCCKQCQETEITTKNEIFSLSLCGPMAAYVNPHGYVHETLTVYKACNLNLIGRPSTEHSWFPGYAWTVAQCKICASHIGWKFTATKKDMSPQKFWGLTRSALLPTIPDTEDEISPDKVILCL
Sequence of GSPT1 (Q16531 whole entry partner): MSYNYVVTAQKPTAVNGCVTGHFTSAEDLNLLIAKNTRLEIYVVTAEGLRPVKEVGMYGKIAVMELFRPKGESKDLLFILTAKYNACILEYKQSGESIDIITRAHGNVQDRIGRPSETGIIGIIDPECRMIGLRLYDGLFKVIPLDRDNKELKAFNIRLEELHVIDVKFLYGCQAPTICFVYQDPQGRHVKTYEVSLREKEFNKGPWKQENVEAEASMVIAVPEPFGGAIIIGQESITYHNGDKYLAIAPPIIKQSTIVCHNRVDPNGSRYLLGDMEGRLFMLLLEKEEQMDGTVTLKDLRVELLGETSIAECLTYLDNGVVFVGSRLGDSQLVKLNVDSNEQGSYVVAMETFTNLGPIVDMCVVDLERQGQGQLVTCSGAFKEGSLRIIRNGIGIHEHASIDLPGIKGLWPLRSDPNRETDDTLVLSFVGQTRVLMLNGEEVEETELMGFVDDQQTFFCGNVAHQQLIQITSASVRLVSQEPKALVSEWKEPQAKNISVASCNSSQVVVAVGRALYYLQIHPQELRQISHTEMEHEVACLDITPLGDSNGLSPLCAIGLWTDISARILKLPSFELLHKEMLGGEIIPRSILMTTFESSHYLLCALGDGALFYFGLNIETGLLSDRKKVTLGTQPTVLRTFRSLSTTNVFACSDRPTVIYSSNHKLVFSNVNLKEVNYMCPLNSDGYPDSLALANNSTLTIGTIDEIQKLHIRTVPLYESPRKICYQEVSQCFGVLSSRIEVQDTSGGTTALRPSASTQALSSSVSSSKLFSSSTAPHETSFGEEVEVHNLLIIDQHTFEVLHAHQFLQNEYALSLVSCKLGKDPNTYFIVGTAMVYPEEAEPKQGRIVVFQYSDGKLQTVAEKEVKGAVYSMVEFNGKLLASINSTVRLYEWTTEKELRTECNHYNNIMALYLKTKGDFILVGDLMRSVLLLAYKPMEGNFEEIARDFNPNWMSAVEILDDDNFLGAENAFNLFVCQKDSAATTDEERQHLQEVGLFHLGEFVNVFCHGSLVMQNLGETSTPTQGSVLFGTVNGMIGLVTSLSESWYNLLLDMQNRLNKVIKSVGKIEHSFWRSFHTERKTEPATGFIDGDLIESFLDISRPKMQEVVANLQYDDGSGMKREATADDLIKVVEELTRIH
T1 sequence (P48729 whole entry): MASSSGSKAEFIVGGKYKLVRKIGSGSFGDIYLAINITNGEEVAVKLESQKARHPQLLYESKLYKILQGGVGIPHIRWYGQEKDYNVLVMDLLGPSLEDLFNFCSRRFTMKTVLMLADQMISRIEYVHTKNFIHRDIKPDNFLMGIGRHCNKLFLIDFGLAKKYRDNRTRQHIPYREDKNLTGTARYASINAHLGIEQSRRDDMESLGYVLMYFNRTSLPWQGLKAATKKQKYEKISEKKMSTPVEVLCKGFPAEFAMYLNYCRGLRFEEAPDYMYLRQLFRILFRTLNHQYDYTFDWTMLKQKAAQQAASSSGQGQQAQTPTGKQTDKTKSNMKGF
T1 sequence (Q96SW2 whole entry): as the sequence (Q96SW2 whole entry) above
T1 sequence (Q16531 whole entry partner): as the sequence (Q16531 whole entry partner) above

Row | DC50 (GSPT1; six hours) | GSPT1 Ymin (GSPT1; six hours) | CK1α Ymin (CK1α; six hours) | DC50 (CK1α; six hours) | DC50 (GSPT1; six hours incubation) | GSPT1 Ymin (GSPT1; six hours incubation) | CK1α Ymin (CK1α; six hours incubation) | DC50 (CK1α; six hours incubation) | SMILES
1 | < 25 nM | F (F = >75-100% remaining) | D (D = >10- 25% remaining) | < 25 nM |  |  |  |  | COc1cncc(-c2c(-c3ccc4c(c3)CN(C3CCC(=O)NC3=O)C4=O)ncn2C)c1 (stereo not shown) [Example 486]
2 | < 25 nM | F (F = >75-100% remaining) | D (D = >10- 25% remaining) | < 25 nM |  |  |  |  | CCn1ncc(-c2ccc3c(c2)CN(C2CCC(=O)NC2=O)C3=O)c1-c1ccccc1 (stereo not shown) [Example 429, 3-(5-(1-ethyl-5-phenyl-1H-pyrazol-4-yl)-1-oxoisoindolin-2-yl)piperidine-2,6-dione]
3 |  |  |  |  | ≥ 25 nM | F (F = >75-100% remaining) | C (C = 0-10% remaining) | < 25 nM | Cn1c(C2CC2)nc(-c2ccc3c(c2)CN(C2CCC(=O)NC2=O)C3=O)c1-c1cncnc1 (stereo not shown) [Example 117, 3-(5-(2-cyclopropyl-1-methyl-5-(pyrimidin-5-yl)-1H-imidazol-4-yl)-1-oxoisoindolin-2-yl)piperidine-2,6-dione]
4 |  |  |  |  | ≥ 25 nM | F (F = >75-100% remaining) | D (D = >10- 25% remaining) | < 25 nM | Cc1ccc(F)c(-c2c(-c3ccc4c(c3)CN(C3CCC(=O)NC3=O)C4=O)ncn2C)c1 (stereo not shown) [Example 170]
5 | ≥ 25 nM | F (F = >75-100% remaining) | C (C = 0-10% remaining) | < 25 nM |  |  |  |  | O=C1CCC(N2Cc3cc(-c4cn(CC(F)(F)F)nc4-c4ccccc4)ccc3C2=O)C(=O)N1 (stereo not shown) [Example 427, 3-(1-oxo-5-(3-phenyl-1-(2,2,2-trifluoroethyl)-1H-pyrazol-4-yl)isoindolin-2-yl)piperidine-2,6-dione]
6 |  |  |  |  | < 25 nM | F (F = >75-100% remaining) | D (D = >10- 25% remaining) | < 25 nM | COc1ccc(F)c(-c2c(-c3ccc4c(c3)CN(C3CCC(=O)NC3=O)C4=O)ncn2C)c1 (stereo not shown) [Example 193]
7 |  |  |  |  | ≥ 25 nM | F (F = >75-100% remaining) | D (D = >10- 25% remaining) | < 25 nM | Cc1cccc(-c2c(-c3ccc4c(c3)CN(C3CCC(=O)NC3=O)C4=O)cnn2C)c1 (stereo not shown) [Example 76]
8 | ≥ 25 nM | F (F = >75-100% remaining) | D (D = >10- 25% remaining) | ≥ 25 nM |  |  |  |  | Cn1ncc(-c2ccc3c(c2)CN(C2CCC(=O)NC2=O)C3=O)c1-c1ccc2nc[nH]c2c1 (stereo not shown) [Example 460]
9 | ≥ 25 nM | F (F = >75-100% remaining) | E (E = >25-75% remaining) | ≥ 25 nM |  |  |  |  | Cn1ncc(-c2ccc3c(c2)CN(C2CCC(=O)NC2=O)C3=O)c1-c1ccc(F)cc1C#N (stereo not shown) [Example 438]
10 |  |  |  |  | ≥ 25 nM | F (F = >75-100% remaining) | E (E = >25-75% remaining) | ≥ 25 nM | O=C1CCC(N2Cc3cc(-c4c[nH]nc4C4CC4)ccc3C2=O)C(=O)N1 (stereo not shown) [Example 47, 3-(5-(3-Cyclopropyl-1H-pyrazol-4-yl)-1-oxoisoindolin-2-yl)piperidine-2,6-dione]
11 |  |  |  |  | < 25 nM | E (E = >25-75% remaining) | E (E = >25-75% remaining) | < 25 nM | COc1ccc(F)cc1-c1c(-c2ccc3c(c2)CN(C2CCC(=O)NC2=O)C3=O)ncn1C (stereo not shown) [Example 191]
12 | ≥ 25 nM | F (F = >75-100% remaining) | D (D = >10- 25% remaining) | < 25 nM |  |  |  |  | CCCCCCc1ccc(-c2nc(-c3ccc4c(c3)CN(C3CCC(=O)NC3=O)C4=O)cn2C)cc1 (stereo not shown) [Example 575]
13 |  |  |  |  | < 25 nM | E (E = >25-75% remaining) | E (E = >25-75% remaining) | ≥ 25 nM | CN1Cc2cccc(-c3c(-c4ccc5c(c4)CN(C4CCC(=O)NC4=O)C5=O)ncn3C)c2C1 (stereo not shown) [Example 264]
14 |  |  |  |  | < 25 nM | F (F = >75-100% remaining) | E (E = >25-75% remaining) | < 25 nM | Cn1cnc(-c2ccc3c(c2)CN(C2CCC(=O)NC2=O)C3=O)c1-c1ccnn1C (stereo not shown) [Example 318]
15 | < 25 nM | F (F = >75-100% remaining) | E (E = >25-75% remaining) | < 25 nM |  |  |  |  | Cn1cnc(-c2ccc3c(c2)CN(C2CCC(=O)NC2=O)C3=O)c1-c1cccc2cc[nH]c12 (stereo not shown) [Example 526]
16 | ≥ 25 nM | F (F = >75-100% remaining) | E (E = >25-75% remaining) | ≥ 25 nM |  |  |  |  | Cn1nc(-c2ccc3c(c2)CN(C2CCC(=O)NC2=O)C3=O)nc1[C@H]1CC[C@H](C)CC1 (stereo partly shown) [Example 616, 3-(5-(1-methyl-5-((1r,4r)-4-methylcyclohexyl)-1H-1,2,4-triazol-3-yl)-1-oxoisoindolin-2-yl)piperidine-2,6-dione]
17 | < 25 nM | F (F = >75-100% remaining) | C (C = 0-10% remaining) | < 25 nM |  |  |  |  | Cc1ccccc1-c1nc(-c2ccc3c(c2)CN(C2CCC(=O)NC2=O)C3=O)cn1C (stereo not shown) [Example 571]

Row | DC50 (GSPT1; six hours) | GSPT1 Ymin (GSPT1; six hours) | CK1α Ymin (CK1α; six hours) | DC50 (CK1α; six hours) | DC50 (GSPT1; six hours incubation) | GSPT1 Ymin (GSPT1; six hours incubation) | CK1α Ymin (CK1α; six hours incubation) | DC50 (CK1α; six hours incubation) | SMILES
18 |  |  |  |  | ≥ 25 nM | F (F = >75-100% remaining) | C (C = 0-10% remaining) | < 25 nM | Cn1ncc(-c2ccc3c(c2)CN(C2CCC(=O)NC2=O)C3=O)c1-c1ccc(N)cc1 (stereo not shown) [Example 124]
19 |  |  |  |  | ≥ 25 nM | F (F = >75-100% remaining) | D (D = >10- 25% remaining) | < 25 nM | Cn1ncc(-c2ccc3c(c2)CN(C2CCC(=O)NC2=O)C3=O)c1-c1ccc2ccccc2c1 (stereo not shown) [Example 136]
20 |  |  |  |  | ≥ 25 nM | F (F = >75-100% remaining) | D (D = >10- 25% remaining) | < 25 nM | Cn1cnc(-c2ccc3c(c2)CN(C2CCC(=O)NC2=O)C3=O)c1-c1cccc2c1CCC2 (stereo not shown) [Example 301]
21 |  |  |  |  | ≥ 25 nM | F (F = >75-100% remaining) | E (E = >25-75% remaining) | < 25 nM | Cn1cnc(-c2ccc3c(c2)CN(C2CCC(=O)NC2=O)C3=O)c1-c1cccc(N2CCOCC2)c1 (stereo not shown) [Example 297]
22 |  |  |  |  | < 25 nM | E (E = >25-75% remaining) | C (C = 0-10% remaining) | < 25 nM | COc1ccc(-c2c(-c3ccc4c(c3)CN(C3CCC(=O)NC3=O)C4=O)ncn2C)c(Cl)c1 (stereo not shown) [Example 273]
23 |  |  |  |  | ≥ 25 nM | F (F = >75-100% remaining) | E (E = >25-75% remaining) | < 25 nM | Cn1cnc(-c2ccc3c(c2)CN(C2CCC(=O)NC2=O)C3=O)c1-c1cc(Cl)ccc1F (stereo not shown) [Example 261]
24 |  |  |  |  | < 25 nM | F (F = >75-100% remaining) | E (E = >25-75% remaining) | < 25 nM | Cn1cnc(-c2ccc3c(c2)CN(C2CCC(=O)NC2=O)C3=O)c1-c1ccc(S(=O)(=O)N2CCCC2)cc1 (stereo not shown) [Example 354]
25 |  |  |  |  | ≥ 25 nM | F (F = >75-100% remaining) | D (D = >10- 25% remaining) | < 25 nM | Cn1ncc(-c2ccc3c(c2)CN(C2CCC(=O)NC2=O)C3=O)c1-c1ccc(N2CCOCC2)cc1 (stereo not shown) [Example 62]
26 |  |  |  |  | ≥ 25 nM | F (F = >75-100% remaining) | D (D = >10- 25% remaining) | < 25 nM | Cn1cnc(-c2ccc3c(c2)CN(C2CCC(=O)NC2=O)C3=O)c1-c1cnn(-c2ccccc2)c1 (stereo not shown) [Example 332]
27 |  |  |  |  | ≥ 25 nM | F (F = >75-100% remaining) | E (E = >25-75% remaining) | ≥ 25 nM | Cc1sccc1-c1c(-c2ccc3c(c2)CN(C2CCC(=O)NC2=O)C3=O)cnn1C (stereo not shown) [Example 66]
28 | ≥ 25 nM | F (F = >75-100% remaining) | C (C = 0-10% remaining) | < 25 nM |  |  |  |  | CC(C)n1cc(-c2ccc3c(c2)CN(C2CCC(=O)NC2=O)C3=O)nc1-c1ccccc1 (stereo not shown) [Example 549, 3-(5-(1-isopropyl-2-phenyl-1H-imidazol-4-yl)-1-oxoisoindolin-2-yl)piperidine-2,6-dione]
29 | ≥ 25 nM | F (F = >75-100% remaining) | D (D = >10- 25% remaining) | < 25 nM |  |  |  |  | Cn1ncc(-c2ccc3c(c2)CN(C2CCC(=O)NC2=O)C3=O)c1-c1ccc2sccc2c1 (stereo not shown) [Example 478]
30 | ≥ 25 nM | F (F = >75-100% remaining) | C (C = 0-10% remaining) | < 25 nM |  |  |  |  | COc1ccc(-c2nc(-c3ccc4c(c3)CN(C3CCC(=O)NC3=O)C4=O)cn2C)cc1C (stereo not shown) [Example 565]
31 | ≥ 25 nM | F (F = >75-100% remaining) | D (D = >10- 25% remaining) | ≥ 25 nM |  |  |  |  | Cn1ncc(-c2ccc3c(c2)CN(C2CCC(=O)NC2=O)C3=O)c1-c1ccc2nccn2c1 (stereo not shown) [Example 382]
32 |  |  |  |  | < 25 nM | F (F = >75-100% remaining) | E (E = >25-75% remaining) | < 25 nM | Cn1ncc(-c2ccc3c(c2)CN(C2CCC(=O)NC2=O)C3=O)c1-c1ccc(Cl)cc1Cl (stereo not shown) [Example 148]
33 | ≥ 25 nM | F (F = >75-100% remaining) | D (D = >10- 25% remaining) | ≥ 25 nM |  |  |  |  | Cc1ccc(-c2c(-c3ccc4c(c3)CN(C3CCC(=O)NC3=O)C4=O)ncn2C)cn1 (stereo not shown) [Example 397]
34 |  |  |  |  | ≥ 25 nM | F (F = >75-100% remaining) | C (C = 0-10% remaining) | < 25 nM | Cn1cc(-c2c(-c3ccc4c(c3)CN(C3CCC(=O)NC3=O)C4=O)cnn2C)cn1 (stereo not shown) [Example 366]
